Tests used:
[1] = biological target: T1, recombinant human plasminogen activator inhibitor-1 (Homo sapiens, UniProt P05121); experiment: Primary screen for the PAI-1 inhibition (residual tPA activity, chromogenic substrate Spectrozyme-tPA); assay type: biochemical; conditions: 25 uM test compound; 140 nM PAI-1, 70 nM tPA, pH 6.6
T1 construct: purchased Molecular Innovations, Royal Oak, Mich
Protocol: Primary Screen for the PAI-1 Inhibition The ability of the compounds of this invention to inhibit plasminogen activator inhibitor-1 was established by the following experimental procedures: Test compounds were dissolved in DMSO at a final concentration of 10 mM, then diluted 100× in physiologic buffer. The inhibitory assay was initiated by the addition of the test compound (1–100 μM final concentration, maximum DMSO concentration of 0.2%) in a pH 6.6 buffer containing 140 nM recombinant human plasminogen activator inhibitor-1 (Molecular Innovations, Royal Oak, Mich.). Following a 1 hour incubation at room temperature, 70 nM of recombinant human tissue plasminogen activator (tPA) was added, and the combination of the test compound, PAI-1 and tPA was incubated for an additional 30 minutes. Following the second incubation, Spectrozyme-tPA (American Diagnostica, Greenwich, Conn.), a chromogenic substrate for tPA, was added and absorbance was read at 405 nm at 0 and 60 minutes. Relative PAI-1 inhibition was equal to the residual tPA activity in the presence of the test compounds and PAI-1. Control treatments included the complete inhibition of tPA by PAI-1 at the molar ratio employed (2:1), and the absence of any effect of the test compound on tPA alone.

human PAI-1 = human PAI-1 (Homo sapiens, UniProt P05121); experiment: Assay for determining IC50 of inhibition of PAI-1 (active PAI-1 bound to tPA-coated plate, antibody detection); assay type: binding; conditions: human PAI-1 50 ng/ml, pH 7.5, tPA-coated plate
Chain of human PAI-1 (P05121 24-402): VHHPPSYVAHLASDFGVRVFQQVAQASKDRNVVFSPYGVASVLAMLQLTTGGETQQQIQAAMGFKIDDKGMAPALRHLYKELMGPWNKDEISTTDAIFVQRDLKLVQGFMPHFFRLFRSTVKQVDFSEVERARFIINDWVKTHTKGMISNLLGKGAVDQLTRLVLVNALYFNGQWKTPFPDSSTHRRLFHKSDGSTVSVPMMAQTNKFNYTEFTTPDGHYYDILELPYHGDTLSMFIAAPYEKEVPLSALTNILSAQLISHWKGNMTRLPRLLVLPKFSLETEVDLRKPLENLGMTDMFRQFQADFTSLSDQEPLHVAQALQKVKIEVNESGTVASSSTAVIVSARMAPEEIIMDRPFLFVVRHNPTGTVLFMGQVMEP
Protocol: Assay for Determining IC50 of Inhibition of PAI-1
This assay was based upon the non-SDS dissociable interaction between tPA and active PAI-1. Assay plates were initially coated with human tPA (10 μg/ml). Test compounds were dissolved in DMSO at 10 mM, then diluted with physiologic buffer (pH 7.5) to a final concentration of 1–50 μM. The test compounds were incubated with human PAI-1 (50 ng/ml) for 15 minutes at room temperature. The tPA-coated plate was washed with a solution of 0.05% Tween 20 and 0.1% BSA, then the plate is blocked with a solution of 3% BSA. An aliquot of the test compound/PAI-1 solution was then added to the tPA-coated plate, incubated at room temperature for 1 hour, and washed. Active PAI-1 bound to the plate was assessed by adding an aliquot of a 1:1000 dilution of the 33B8 monoclonal antibody against human PAI-1, and incubating the plate at room temperature for 1 hour (Molecular Innovations, Royal Oak, Mich.). […] The plate was incubated 45 minutes at room temperature, and color development is determined at OD405nm. The quantitation of active PAI-1 bound to tPA at varying concentrations of the test compound was used to determine the IC50. Results were analyzed using a logarithmic best-fit equation. The assay sensitivity is 5 ng/ml of human PAI-1 as determined from a standard curve ranging from 0–100 ng/ml.

T1 sequence (P05121 24-402): as above

Structure (SMILES)	inhibition at 25 µM [1] [%]	melting point	IC50 (human PAI-1) [µM]
CN(CC(=O)O)C(=O)C(=O)c1cn(Cc2ccccc2)c2ccc(-c3cccc(OC(F)(F)F)c3)cc12 [Example 3, 2-[(2-{1-Benzyl-5-[3-(trifluoromethoxy)phenyl]-1H-indol-3-yl}-2-oxoacetyl)(methyl)amino]acetic acid]	24	178 to 179 °C	–
Cc1cccc(-c2ccc3c(c2)c(C(=O)C(=O)NCC(=O)O)cn3Cc2ccc(C(C)(C)C)cc2)c1 [Example 1, {[[1-(4-tert-butylbenzyl)-5-(3-methylphenyl)-1H-indol-3-yl](oxo)acetyl]amino}acetic acid]	–	120 to 121 °C	29
O=C(O)CNC(=O)C(=O)c1cn(Cc2ccccc2)c2ccc(-c3ccc(OC(F)(F)F)cc3)cc12 [Example 2, 2-[(2-{1-Benzyl-5-[4-(trifluoromethoxy)phenyl]-1H-indol-3-yl}-2-oxoacetyl)amino]acetic acid]	–	211 to 212 °C (dec.)	28

— patent publication US7056943B2, “Substituted indole oxo-acetyl amino acetic acid derivatives as inhibitors of plasminogen activator inhibitor-1 (PAI-1)” (Wyeth, priority 2002, dated 2006)
